US8785489B2, “Heteroaryl substituted indole compounds useful as MMP-13 inhibitors” (Boehringer Ingelheim International GmbH, priority 2008, dated 2014)

Each compound was assayed against MMP13 (Homo sapiens (Human), UniProt P45452) (assay: EnzoLyte 520 Generic MMP Assay Kit, 5-FAM/QXL 520 FRET peptide substrate).
Format: biochemical
Source text: The EnzoLyte™ 520 Generic MMP Assay Kit (AnaSpec Inc.) can detect the activity of several MMPs including MMP-1, 2, 3, 7, 8, 9, 13, and 14. This kit uses a 5-FAM/QXL™ 520 fluorescence resonance energy transfer (FRET) peptide as an MMP substrate. In the intact FRET peptide, the fluorescence of 5-FAM is quenched by QXL™ 520. Upon cleavage into two separate fragments by MMPs, the fluorescence of 5-FAM is recovered, and can be monitored at excitation/emission wavelengths=490 nm/520 nm. The assays are performed in a convenient 96-well or 384-well microplate format.

Compound	IC50 [nM]
Cc1noc(-c2cc3cc(-c4nc(C(=O)NC[C@H]5CCCO5)[nH]c4C)ccc3[nH]2)n1 [5-methyl-4-[2-(3-methyl-1,2,4-oxadiazol-5-yl)-1H-indol-5-yl]-N-[(2R)-tetrahydrofuran-2-ylmethyl]-1H-imidazole-2-carboxamide]	5
Cc1noc(-c2cc3cc(-c4nc(C(=O)NCc5ccoc5)[nH]c4C)ccc3[nH]2)n1	3
Cn1nc(C(=O)NCc2ccc(C(=O)O)cc2)cc1-c1ccc2[nH]c(-c3cccnc3)cc2c1	3
Cc1noc(-c2cc3cc(-c4cc(C(=O)NCc5cc(C)on5)nn4C)ccc3[nH]2)n1 [1-methyl-N-[(5-methylisoxazol-3-yl)methyl]-5-[2-(3-methyl-1,2,4-oxadiazol-5-yl)-1H-indol-5-yl]-1H-pyrazole-3-carboxamide]	24
CCOC(=O)c1cc2cc(-c3cc(C(=O)NCc4ccncc4)ncc3C)ccc2[nH]1	155
Cc1noc(-c2cc3cc(-c4cc(C(=O)NCc5cscn5)nn4C)ccc3[nH]2)n1 [1-methyl-5-[2-(3-methyl-1,2,4-oxadiazol-5-yl)-1H-indol-5-yl]-N-(1,3-thiazol-4-ylmethyl)-1H-pyrazole-3-carboxamide]	94
O=C(NCc1ccncc1)c1cc(-c2ccc3[nH]c(-c4ccncc4)cc3c2)ccn1 [4-(2-Pyridin-4-yl-1H-indol-5-yl)-pyridine-2-carboxylic acid (pyridin-4-ylmethyl)-amide]	62
Cc1noc(-c2cc3cc(-c4nc(C(=O)NCC5CCCO5)[nH]c4C)ccc3[nH]2)n1 (stereo not drawn) [5-methyl-4-[2-(3-methyl-1,2,4-oxadiazol-5-yl)-1H-indol-5-yl]-N-(tetrahydrofuran-2-ylmethyl)-1H-imidazole-2-carboxamide]	3
Cc1noc(-c2cc3cc(-c4nc(C(=O)NCc5ccnnc5)[nH]c4C)ccc3[nH]2)n1	1.2
Cc1noc(-c2cc3cc(-c4cc(C(=O)NCc5ccno5)nn4C)ccc3[nH]2)n1 [N-(isoxazol-5-ylmethyl)-1-methyl-5-[2-(3-methyl-1,2,4-oxadiazol-5-yl)-1H-indol-5-yl]-1H-pyrazole-3-carboxamide]	19
CCOC(=O)c1cc2cc(-c3nc(C(=O)NCc4ccncc4)[nH]c3C)cnc2[nH]1	49
Cc1noc(-c2cc3cc(-c4nc(C(=O)NCc5cc(C)on5)[nH]c4C)ccc3[nH]2)n1 [5-methyl-N-[(5-methylisoxazol-3-yl)methyl]-4-[2-(3-methyl-1,2,4-oxadiazol-5-yl)-1H-indol-5-yl]-1H-imidazole-2-carboxamide]	0.9
CCOC(=O)c1cc2cc(-c3nc(C(=O)NCc4ccncc4)[nH]c3C)ccc2[nH]1	2
Cc1noc(-c2cc3cc(-c4nc(C(=O)NCc5ccc(C(=O)O)cc5)[nH]c4C)ccc3[nH]2)n1	0.2
COC(=O)c1cc(-c2ccc3[nH]c(-c4nc(C)no4)cc3c2)n(C)n1	190
CCOC(=O)c1cc2nc(-c3nc(C(=O)NCc4ccncc4)[nH]c3C)ccc2[nH]1	95

More lines, in order of falling IC50, values ahead:

IC50 [nM]	Compound
125	CCOC(=O)c1cc2cc(-c3cc(C(=O)NCc4ccc(=O)[nH]c4)nn3C)ccc2[nH]1
125	Cc1noc(-c2cc3cc(-c4cc(C(=O)NCc5ccnn5C)nn4C)ccc3[nH]2)n1 [1-methyl-5-[2-(3-methyl-1,2,4-oxadiazol-5-yl)-1H-indol-5-yl]-N-[(1-methyl-1H-pyrazol-5-yl)methyl]-1H-pyrazole-3-carboxamide]
88	Cc1cc(Cn2cc(-c3nc(C(=O)NCc4ccc(C(=O)O)cc4)[nH]c3C)cn2)ccc1F
64	Cc1noc(-c2cc3cc(-c4nc(C(=O)N5CCCCC5)[nH]c4C)ccc3[nH]2)n1
44	Cc1noc(-c2cc3cc(-c4cc(C(=O)NCc5cccs5)nn4C)ccc3[nH]2)n1
20	Cc1noc(-c2cc3nc(-c4nc(C(=O)NCc5ccncc5)[nH]c4C)ccc3[nH]2)n1
15	Cc1noc(-c2cc3cc(-c4nc(C(=O)NC(C)c5cccs5)[nH]c4C)ccc3[nH]2)n1 (stereo not drawn)
14	Cc1noc(-c2cc3cc(-c4cc(C(=O)NCc5ccncc5)ncc4C)ccc3[nH]2)n1
10	Cc1noc(-c2cc3cc(-c4cc(C(=O)NCc5ccc(C#N)cc5)nn4C)ccc3[nH]2)n1
6	Cc1noc(-c2cc3cc(-c4nc(C(=O)NCc5nnc[nH]5)[nH]c4C)ccc3[nH]2)n1
4	Cc1noc(-c2cc3cc(-c4cc(C(=O)NCc5ccncc5)nn4C)ccc3[nH]2)n1
3	CCOC(=O)c1cc2cc(-c3cc(C(=O)NCc4ccc(CC(=O)O)cc4)nn3C)ccc2[nH]1
2	Cc1noc(-c2cc3cc(-c4nc(C(=O)NCc5cccs5)[nH]c4C)ccc3[nH]2)n1
2	Cc1noc(-c2cc3cc(-c4nc(C(=O)NCc5ccc(N)nc5)[nH]c4C)ccc3[nH]2)n1
1.6	Cn1nc(C(=O)NCc2ccc(C(=O)O)cc2)cc1-c1ccc2[nH]c(-c3ncccn3)cc2c1
1.3	Cc1noc(-c2cc3cc(-c4nc(C(=O)NCc5ccnc(N)c5)[nH]c4C)ccc3[nH]2)n1
0.95	Cc1noc(-c2cc3cc(-c4nc(C(=O)NCc5ccnc(C#N)c5)[nH]c4C)ccc3[nH]2)n1 [N-[(2-cyanopyridin-4-yl)methyl]-5-methyl-4-[2-(3-methyl-1,2,4-oxadiazol-5-yl)-1H-indol-5-yl]-1H-imidazole-2-carboxamide]
0.6	Cc1noc(-c2cc3cc(-c4nc(C(=O)NCc5cccnc5)[nH]c4C)ccc3[nH]2)n1
0.6	Cc1noc(-c2cc3cc(-c4nc(C(=O)NCc5ccncn5)[nH]c4C)ccc3[nH]2)n1
0.2	Cc1noc(-c2cc3cc(-c4cc(C(=O)NCc5ccc(C(=O)O)cc5)ncc4C)ccc3[nH]2)n1
